The test system of this assay is microgreens. Briefly: Radish microgreens growth under controlled pH 5, 1% solutions (Example 2). It is filed as in vivo. Particulars: for germination rate / root hair development: Day 2; for Plant dry weight: harvest Day 8, dried 3 days. Here is the method: The biostimulant effect of a PBC under controlled pH and composition conditions was investigated. Particularly, a second batch of testing was performed to verify that biostimulant effect observed in Example 1 was not an artifact of differing pH or composition. In this set, samples having a controlled yet differing compositions were compared. The first sample set comprised the sugar sucrose while the second sample comprised citric acid. Citric acid was reported to promote seed germination, all under the same pH. Therefore, solutions of 1% citric acid, sucrose, and a PBC were prepared and adjusted to a pH of 5. Two pots were filled with 150 g of each solution. About 200 seeds were placed on top of each soaked growing mats. This second batch was left indoors at room temperature for 8 days.
Microgreens were harvested on Day 8. They were then dried for 3 days, and the dry weights were recorded.

The mark [1] stands for this setting: 1% solution, pH 5, harvest Day 8.

Values joined by “and” are separate entries in the source; they are usually repeats but may differ in a detail not shown here. Equal values may be shown once.

In the case of `OC[C@H]1O[C@@](CO)(O[C@H]2O[C@H](CO)[C@@H](O)[C@H](O)[C@H]2O)[C@@H](O)[C@@H]1O` [Sucrose, sucrose], the root hair development entry is recorded as “most root hair development”. Further, under “1% solution, pH 5”, the germination rate worked out at 99%; the Plant dry weight was 3.0 g and 2.29 g. For the same molecule, under setting [1], the “Length of Root” value was 2.61 ± 0.43 cm and 2.49 ± 1.0 cm; the “Length of Stem” value is 3.86 ± 1.10 cm and 4.27 ± 1.03 cm. For the same molecule, the leaf development result (Day 3) is listed as “most leaf development”. Moreover, the growth observation entry (Day 7) is “healthy leaf growth”.

Regarding `O=C(O)CC(O)(CC(=O)O)C(=O)O` [Citric Acid, citric acid], the root hair development entry is recorded as “minimal root hair development”. Under “1% solution, pH 5”, the germination rate was determined as 100%; the Plant dry weight was 1.99 g and 1.81 g. Also, the “Length of Root” value under setting [1] was 0.82 ± 0.25 cm and 0.71 ± 0.22 cm. The “overall growth at harvest (Table 2 summary)” value (1 wt. %, Day 8) is “least overall growth in every parameter considered”. The growth observation result (Day 4) is “stunted growth with no stem or root hair development”. The growth observation entry (Day 7) was “no stem development and poor overall growth”.

The record behind these values is patent publication US20260041089A1, “PLANT BIOSTIMULANT AND METHODS OF MAKING AND USING SAME” (Solugen, Inc., priority 2022, published 2026).
